Read-outs that look alike come from different tables or passages of the source.
Legend:
mouse P23H opsin mutant = mouse P23H opsin mutant (Mus musculus, UniProt P15409, P23H); test: β-Gal fragment complementation assay: rescue of P23H opsin transport from ER to plasma membrane, U2OS(PLC-EA/P23H-PK) cells; type: cell-based; settings: for Emax: U2OS; for dependence of activity on light exposure of cells: cells exposed to light vs dark
Description: U2OS(PLC-EA/P23H-PK) cells. A U2OS stable cell line was generated by DiscoveRx, Inc. (Fremont, CA, USA) for the β-Gal fragment complementation assay used in the small molecule HTS for rescue of P23H opsin transport. U2OS cells that continually express P23H-PK and PLC-EA fusion proteins were generated. Briefly, this small subunit of […] (PK fragment) was fused to the C-terminal of the mouse P23H opsin mutant, while the large EA fragment, a subunit of […], was fused with PLC, a plasma membrane anchored peptide. Both constructs were subcloned by DicoveRx, Inc. and transferred into U2OS cells by viral infections. Positive clones were selected under treatment with hygromycin and geneticin.
Briefly, U2OS(PLC-EA/P23H-PK) cells were suspended in assay medium at 3×10^5 cells mL^−1. The cell suspension was dispensed into 384-well plates (Greiner Bio-one, Monroe, NC, USA) at 20 μL per well, with a Multidrop dispenser (Thermo Scientific, Waltham, MA, USA). Plates with cells then were centrifuged at 200 g for 15 s before incubation at 37° C. with 5% CO2. Plates were removed 24 h later for treatment with tested compounds. A total of 248 plates containing 79,080 compounds from three small molecule libraries were paired with an equal number of assay plates with cultured cells. Due to a limited capacity, these plates were assayed in seven batches. An average of 56.3 nL of 10 mM compound in DMSO was dispensed into each well from column 3 to 22 of paired assay plates using a 50 nL 384-pintool system, such that the final concentration of each compound was 22.52 μM on average. […] Each assay plate was shaken for 5 s before further incubation at 37° C. with 5% CO2. […] Assay plates were incubated in the dark for 60-90 min, and luminescence was read from each assay plate with an Envision microplate reader (PerkinElmer) during a 0.1 s per well integration time. The mean and s.d. of readouts in column 2 of each plate were calculated as Mean0% and SD0%, whereas the average and s.d. of readouts in column 23 were calculated as Mean100% and SD100%. Equation 1: Activity scores (%)=(RLUcp−Mean0%)/(Mean100%−Mean0%)×100%, where RLUcp is the relative luminescence unit derived for cells treated with a compound. Equation 2: Z′-factor=1-3×(SD0%+SD100%)/(Mean100%−Mean0%); Equation 3: signal-to-background (S/B) ratio=Mean100%/Mean0%. Activities of all tested compounds were registered with their compound ID by GeneData Screener (Genedata, Basel, Switzerland) and Pipeline Pilot software (Accelrys, San Diego, CA, USA). Hits, cherry-picked from a separate stock dose-dependent activity test, were selected with an activity score cutoff at 20%. Activity of each hit was tested again with the β-Gal fragment complementation assay in a 10-dose series with each dose tested in triplicate. The 10 doses tested were 80, 40, 20, 10, 5, 2.5, 1.25, 0.625, 0.313, and 0.156 μM. Dose-dependent curves of each hit compound were fitted with GeneData and Origin software.
Detailed synthetic steps are described in FIG. 18. […] YC-002-YC-021 were purchased from commercial vendors including Enamine LLC (Monmouth Jct., NJ, USA), Matrix Scientific (Columbia, SC, USA) and Tokyo Chemical Industry Co., Ltd. (Portland, OR, USA). […] Activities of YC compounds were tested with the β-Gal fragment complementation assay, as described in a prior section. All YC compounds were tested at 10 doses, each in triplicate: 80, 40, 20, 10, 5, 2.5, 1.25, 0.625, 0.313, and 0.156 μM.

mouse P23H opsin = target: T1, mouse P23H opsin (Mus musculus, UniProt P15409, P23H); test: Immunostain and image-based high-content analysis of P23H mutant opsin in NIH3T3 cells; type: cell-based; settings: for Immunostaining HCS MEM-Total ratio Max (fit) / EC50: ratio of P23H rod opsin fluorescence on plasma membrane to whole cell; for EC50: 1440 min, read-out: Immunostaining HCS MEM-Total ratio EC50; for effect on cell number: NIH3T3 cells, YC-001 up to 40 μM, 9-cis-retinal higher than 10 μM; for P23H opsin on the plasma membrane: dose-dependent, FIG. 2
T1 construct: expressed in transfected cells
Description: Three NIH3T3 stable cell lines, NIH3T3-(WT-opsin/GFP), NIH3T3-(P23H-opsin/GFP), and NIH3T3-(GFP) were previously generated which stably express mouse WT opsin and GFP; P23H opsin and GFP; and only GFP, respectively. GFP is expressed separately from opsin in these cell lines. NIH3T3 cells were from ATCC. DNA constructs for generating these stable cell lines were confirmed by Sanger sequencing. Expression of GFP was confirmed by green fluorescence imaging, and expression of P23H and WT opsin were confirmed by immunoblots.
To characterize the effect of active compounds on the localization of P23H mutant opsin in mammalian cells, an image-based assay was used with cells immunostained for WT or P23H mutant opsin protein. Briefly, NIH3T3-(P23H-opsin/GFP) or NIH3T3-(WT-opsin/GFP) cells were seeded at 5,000 cells per well in a 384-well cell-carrier plate (PerkinElmer) and incubated at 37° C. with 5% CO2 for 2 h. Cells were treated with compounds as described for the β-Gal fragment complementation assay and incubated in assay medium for 24 h. The assay medium then was aspirated, and cells were fixed with 4% paraformaldehyde at 20 μL per well for 20 min at RT. Cells were immunostained in one of two ways: cell membranes were either permeabilized with 0.1% Triton X-100 for 15 min or left intact and then were incubated with 10% goat serum (Life Technologies). To detect opsin on the cell plasma membrane only, intact cells were immunostained with 20 μL per well of 20 μg mL^−1 B6-30 anti-rhodopsin antibody that recognizes the N-terminal epitope on the extracellular side of rhodopsin. To detect total opsin, cells were permeabilized with Triton X-100 and immunostained with 50 μg mL^−1 1D4 anti-rhodopsin antibody specific for the C-terminal epitope on the intracellular side of rhodopsin. Opsin immunostaining was visualized by incubating cells with 5 μg mL^−1 Cy3-conjugated goat anti-mouse IgG antibody. Three washes with phosphate-buffered saline (PBS: 10 mM Na2HPO4, 1.8 mM KH2PO4, pH 7.4, 137 mM NaCl, and 2.7 mM KCl) were performed between each step of incubation with antibody. In the last wash with PBS, DAPI was added to each well at 300 nM. Fluorescence images were obtained with the Operetta High Content Imaging System (PerkinElmer) using a 20× long objective. Five fields were taken of each well for cell images using three channels for fluorescence: GFP (100 ms), Cy3 (300 ms), and DAPI (50 ms). Images were analyzed with Acapella software from the Columbus data storage and analysis system (PerkinElmer). For cells immunostained with opsin on the non-permeabilized cell membrane only, an average of total fluorescence intensity of Cy3 per cell was used to quantify opsin in each well of the 384-well plate. For cells immunostained with opsin in permeabilized whole cells, an average ratio of Cy3 intensity on the cell plasma membrane (PM) to that of the entire cell (opsin ratio PM-to-total) was calculated for each well of a 384-well plate to quantify opsin transport to the plasma membrane. The plasma membrane was defined within ±5% of the cell border.

[1] = Table 1, scores relative to 9-cis-retinal, read-out: β-Gal fragment complementation assay Activity score (%) EC50
[2] = Table 1, experimental maximum, read-out: β-Gal fragment complementation assay Activity score (%) Max (Exp)
[3] = Table 1, fitted maximum, read-out: β-Gal fragment complementation assay Activity score (%) Max (fit)

| activity in rescuing P23H opsin transport (in words) (mouse P23H opsin mutant) | EC50 (mouse P23H opsin mutant; [1]) [µM] | Emax (mouse P23H opsin mutant; [2]) [%] | Emax (mouse P23H opsin mutant; [3]) [%] | Immunostaining HCS MEM-Total ratio Max (fit) (mouse P23H opsin) | EC50 (mouse P23H opsin) [µM] | SMILES | dependence of activity on light exposure of cells (mouse P23H opsin mutant) | effect on cell number (mouse P23H opsin) | P23H opsin on the plasma membrane (mouse P23H opsin) | time to maximum activity (mouse P23H opsin mutant; FIG. 1F, 40 μM YC-001) [h] | EC50 (mouse P23H opsin mutant; HTS hit confirmation, FIG. 1E, read-out: potency) [µM] | EC50 (mouse P23H opsin mutant; Table 5, more than one site modified, read-out: Potency) [µM] | Emax (mouse P23H opsin mutant; read-out: Efficacy (%)) [%] | effect of co-treatment with scriptaid on P23H opsin transport (mouse P23H opsin mutant; YC-001 and scriptaid co-treatment) | effect of co-treatment with 9-cis-retinal (mouse P23H opsin mutant; with 5 μM 9-cis-retinal, FIG. 1G) | ratio of P23H opsin stain in the ER region to total P23H opsin staining (mouse P23H opsin; FIG. 2M,N) |
| --- | --- | --- | --- | --- | --- | --- | --- | --- | --- | --- | --- | --- | --- | --- | --- | --- |
| strong activity | 3.09 | 98 | 98.2 | 0.070 | 0.38 | O=C(CCCCCN1C(=O)c2cccc3cccc(c23)C1=O)NO [Scriptaid, reference compound] |  |  |  |  |  |  |  |  |  |  |
|  | 2.7 | 123 | 159 | 0.019 | 0.377 | CC1=C(/C=C/C(C)=C\C=C\C(C)=C\C=O)C(C)(C)CCC1 [9-cis-retinal, reference compound] | required that cells be incubated in the dark | killed most cells | increased |  |  |  |  |  |  |  |

| SMILES | activity in rescuing P23H opsin transport (in words) (mouse P23H opsin mutant) | EC50 (mouse P23H opsin mutant; [1]) [µM] | Emax (mouse P23H opsin mutant; [2]) [%] | Emax (mouse P23H opsin mutant; [3]) [%] | Immunostaining HCS MEM-Total ratio Max (fit) (mouse P23H opsin) | EC50 (mouse P23H opsin) [µM] | dependence of activity on light exposure of cells (mouse P23H opsin mutant) | effect on cell number (mouse P23H opsin) | P23H opsin on the plasma membrane (mouse P23H opsin) | time to maximum activity (mouse P23H opsin mutant; FIG. 1F, 40 μM YC-001) [h] | EC50 (mouse P23H opsin mutant; HTS hit confirmation, FIG. 1E, read-out: potency) [µM] | EC50 (mouse P23H opsin mutant; Table 5, more than one site modified, read-out: Potency) [µM] | Emax (mouse P23H opsin mutant; read-out: Efficacy (%)) [%] | effect of co-treatment with scriptaid on P23H opsin transport (mouse P23H opsin mutant; YC-001 and scriptaid co-treatment) | effect of co-treatment with 9-cis-retinal (mouse P23H opsin mutant; with 5 μM 9-cis-retinal, FIG. 1G) | ratio of P23H opsin stain in the ER region to total P23H opsin staining (mouse P23H opsin; FIG. 2M,N) |
| --- | --- | --- | --- | --- | --- | --- | --- | --- | --- | --- | --- | --- | --- | --- | --- | --- |
| O=C1OCC(c2ccc(Cl)s2)=C1c1cccs1 [YC-001] |  | 8.7 | 310 | 310 | 0.030 | 2.75 | not affected | did not affect cell number | increased | ≤ 15 | 7.8 | 8.39 | 248 | synergistic effect | No additive effect | decreased |

Source: patent US12251373B2, “Compounds and methods of treating retinal degeneration” (CASE WESTERN RESERVE UNIVERSITY, priority 2017, dated 2025)
